Measured values from patent US12521438B2, “SMARCA degraders and uses thereof” (Kymera Therapeutics, Inc., priority 2019, dated 2026).

Key:
Format in all cases: cell-based
SMARCA4 = target: T1, SMARCA4 (Homo sapiens, UniProt P51532); assay: SMARCA4 Western blot MV4-11 degradation; details: MV4-11 cells, 24 hours; for Dmax: read-out: SMARCA4 WB MV411 degradation 24h: Average Dmax %; for DC50: read-out: SMARCA4 WB MV411 degradation 24h: Average external-Abs DC50
T1 construct: endogenous in cells; host or cells: MV4-11
T1 sequence (P51532 whole entry): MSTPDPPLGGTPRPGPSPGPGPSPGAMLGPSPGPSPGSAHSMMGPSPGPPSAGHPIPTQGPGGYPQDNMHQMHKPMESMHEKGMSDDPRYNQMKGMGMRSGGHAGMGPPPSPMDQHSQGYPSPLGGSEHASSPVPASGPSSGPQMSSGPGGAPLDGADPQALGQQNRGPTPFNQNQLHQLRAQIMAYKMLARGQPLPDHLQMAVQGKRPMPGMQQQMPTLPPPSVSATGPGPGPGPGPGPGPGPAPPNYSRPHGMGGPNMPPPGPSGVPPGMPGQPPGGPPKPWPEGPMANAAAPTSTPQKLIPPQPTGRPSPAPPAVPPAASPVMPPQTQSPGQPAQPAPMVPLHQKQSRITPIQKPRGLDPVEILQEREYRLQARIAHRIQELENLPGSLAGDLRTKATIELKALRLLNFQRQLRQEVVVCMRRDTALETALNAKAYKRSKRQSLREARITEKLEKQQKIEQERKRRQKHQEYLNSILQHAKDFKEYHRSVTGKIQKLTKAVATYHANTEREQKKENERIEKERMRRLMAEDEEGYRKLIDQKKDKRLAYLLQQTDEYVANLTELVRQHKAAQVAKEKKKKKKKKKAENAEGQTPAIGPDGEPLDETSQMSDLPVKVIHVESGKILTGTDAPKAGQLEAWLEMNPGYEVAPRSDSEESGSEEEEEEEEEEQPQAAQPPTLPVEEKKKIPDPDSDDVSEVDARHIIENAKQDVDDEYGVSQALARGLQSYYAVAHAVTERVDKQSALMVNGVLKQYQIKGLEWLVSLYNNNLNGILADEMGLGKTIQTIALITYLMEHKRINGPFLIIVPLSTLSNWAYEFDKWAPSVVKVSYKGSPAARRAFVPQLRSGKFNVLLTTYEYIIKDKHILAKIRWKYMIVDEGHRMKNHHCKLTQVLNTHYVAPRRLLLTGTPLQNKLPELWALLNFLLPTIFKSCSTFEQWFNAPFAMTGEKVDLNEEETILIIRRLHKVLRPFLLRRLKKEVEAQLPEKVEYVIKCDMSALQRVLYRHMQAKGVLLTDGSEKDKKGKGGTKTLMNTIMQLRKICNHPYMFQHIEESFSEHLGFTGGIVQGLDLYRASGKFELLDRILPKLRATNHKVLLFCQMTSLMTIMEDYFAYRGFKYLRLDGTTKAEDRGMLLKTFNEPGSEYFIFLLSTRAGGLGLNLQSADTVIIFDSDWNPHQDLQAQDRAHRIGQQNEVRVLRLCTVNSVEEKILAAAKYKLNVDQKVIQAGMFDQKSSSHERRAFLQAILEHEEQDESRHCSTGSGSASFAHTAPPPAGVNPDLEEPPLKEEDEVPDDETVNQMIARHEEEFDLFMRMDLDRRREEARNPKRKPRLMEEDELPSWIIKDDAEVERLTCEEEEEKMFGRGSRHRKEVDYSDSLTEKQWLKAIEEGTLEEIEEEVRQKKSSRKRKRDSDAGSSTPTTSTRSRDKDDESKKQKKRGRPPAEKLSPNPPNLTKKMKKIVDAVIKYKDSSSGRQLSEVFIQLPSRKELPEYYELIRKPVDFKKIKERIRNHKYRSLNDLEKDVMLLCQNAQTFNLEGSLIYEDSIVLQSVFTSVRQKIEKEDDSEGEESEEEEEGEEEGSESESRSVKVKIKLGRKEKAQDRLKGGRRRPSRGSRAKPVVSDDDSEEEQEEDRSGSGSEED
Experimental: (§1) Example 10. SMARCA2 and SMARCA 4 Western Blot MV4-11 Degradation
(§2) Cells were seeded into 6-well plates (MV4-11: 4×10^6 cells/well/1 ml) and 1 ml of 2× compound solution was added into the well to make the final concentration and the plates were mixed well and incubated for 24 hours (No cytotoxicity was observed). The cell were collected with media and spun at 3000 rpm for 5 minutes. The supernatant was aspirated and the well and the cells were washed with cold PBS once and combined for centrifugation again; the supernatant aspirated again. 200 ul pre-chilled RIPAlysis buffer (Boston BioProducts BP-115D) with protease/phosphatase inhibitor (Roche 05892791001/Roche 04906837001) was directly added into the tube to lyze the cells for 20 minutes on ice. The cell lysate were collected into EP tubes and spun at 13000 rpm for 20 minutes and 72 ul supernatant was transferred to a fresh EP tube containing 18 ul of 5× loading buffer (Beyotime Bio P0015) to make the loading samples. The samples were heated to 100° C. for 10 minutes and cooled to RT and microcentrifuged. 20 ul of samples were loaded onto SDS-PAGE gel (Novex, WG1402BOX) and the gel was run at 80 V for 20 minutes and 120 V for 1.5 hours. The samples were electrotransfer to a NC membrane using wet-transfer method with 250 mA for 2.5 hours. The membrane was blocked with LICOR blocking buffer (LI-COR, 927-50000) for 1 hour. The membrane was washed three times with TBST (CST #9997S), 5 minutes each. Incubation was performed with primary antibody prepared in blocking buffer with 0.1% Tween-20 (Solarbio, P8220) at 4° C. overnight (Anti-SMARCA2/BRM antibody (ab15597) 1:500; Anti-BRG1 antibody [EPR3912] (ab108318) 1:1000; Rabbit anti-Baf180 antibody [EPR15860] (Abcam,ab196022) 1:1000; mouse anti-beta-Actin (8H10D10) (CST #3700) 1:10000). The membrane was washed three times with TBST, 5 minutes each. Incubation with secondary antibody was performed for 1 hour at RT (anti-rabbit IgG (Licor, 926-32211) 1:5000; anti-mouse IgG (LI-COR, 926-68070) 1:5000). The membrane was washed three times with 5 minutes each and lastly the LiCOR was read.

SMARCA2 [1] = target: T2, SMARCA2 (Homo sapiens, UniProt P51531); assay: MSD SMARCA2 degradation in NCI-H1299 cell line; parameters: endogenous in cells; details: NCI-H1299 cells, 24 hours
T2 sequence (P51531 whole entry): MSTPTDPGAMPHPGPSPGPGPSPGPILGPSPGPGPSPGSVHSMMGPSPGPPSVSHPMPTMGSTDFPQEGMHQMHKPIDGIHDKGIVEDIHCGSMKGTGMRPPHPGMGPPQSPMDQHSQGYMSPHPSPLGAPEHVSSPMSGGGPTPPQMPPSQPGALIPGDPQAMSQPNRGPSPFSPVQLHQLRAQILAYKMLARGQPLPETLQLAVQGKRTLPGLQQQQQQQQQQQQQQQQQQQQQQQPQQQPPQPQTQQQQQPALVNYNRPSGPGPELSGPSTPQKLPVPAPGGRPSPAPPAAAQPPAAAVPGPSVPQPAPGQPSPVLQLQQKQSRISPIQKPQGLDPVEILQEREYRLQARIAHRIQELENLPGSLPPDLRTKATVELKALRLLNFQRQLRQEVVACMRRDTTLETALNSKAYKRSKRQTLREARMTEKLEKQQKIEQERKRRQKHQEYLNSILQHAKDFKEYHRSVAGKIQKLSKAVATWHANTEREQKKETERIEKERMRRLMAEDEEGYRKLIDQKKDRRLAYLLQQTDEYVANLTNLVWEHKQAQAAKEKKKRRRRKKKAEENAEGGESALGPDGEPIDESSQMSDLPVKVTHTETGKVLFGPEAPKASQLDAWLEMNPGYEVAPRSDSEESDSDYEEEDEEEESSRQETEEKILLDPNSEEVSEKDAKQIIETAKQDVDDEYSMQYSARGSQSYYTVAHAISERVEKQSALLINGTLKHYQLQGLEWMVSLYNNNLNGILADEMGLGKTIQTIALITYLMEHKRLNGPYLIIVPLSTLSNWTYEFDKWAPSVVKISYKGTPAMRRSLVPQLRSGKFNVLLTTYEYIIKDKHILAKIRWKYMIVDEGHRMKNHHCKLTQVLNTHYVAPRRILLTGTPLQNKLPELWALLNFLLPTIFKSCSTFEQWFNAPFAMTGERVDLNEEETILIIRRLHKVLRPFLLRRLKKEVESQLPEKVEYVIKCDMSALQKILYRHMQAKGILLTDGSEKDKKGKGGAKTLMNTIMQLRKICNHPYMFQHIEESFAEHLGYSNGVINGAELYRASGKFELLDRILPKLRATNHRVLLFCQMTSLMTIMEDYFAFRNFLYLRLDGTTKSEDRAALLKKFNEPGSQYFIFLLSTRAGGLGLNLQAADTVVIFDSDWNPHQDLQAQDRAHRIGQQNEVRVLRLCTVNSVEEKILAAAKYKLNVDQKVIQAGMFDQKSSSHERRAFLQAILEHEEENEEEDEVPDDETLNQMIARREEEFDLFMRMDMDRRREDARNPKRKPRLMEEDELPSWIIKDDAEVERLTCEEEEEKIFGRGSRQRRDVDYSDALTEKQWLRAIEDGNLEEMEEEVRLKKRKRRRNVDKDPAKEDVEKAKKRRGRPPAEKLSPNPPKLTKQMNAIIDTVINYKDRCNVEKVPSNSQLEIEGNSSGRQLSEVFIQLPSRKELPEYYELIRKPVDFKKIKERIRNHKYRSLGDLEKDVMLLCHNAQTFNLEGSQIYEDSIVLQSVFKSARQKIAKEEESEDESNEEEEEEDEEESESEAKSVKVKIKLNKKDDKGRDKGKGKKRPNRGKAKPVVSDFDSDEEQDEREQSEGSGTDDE
Experimental: Example 8. MSD SMARCA2 Degradation in NCI-H1299 Cell Line
Cell Culture: Cells were Cultured in Exponential Growth Phase.
Compound Preparation and Treatment: NCI-H1299 cells were seeded into the 96-well plate at 4.0*10^4 cells per 100 ul per well. Incubate the plate in the incubator overnight. The next day, compounds were diluted to designed stock concentration by TECAN, then perform a 3 fold, 9-point dilution via transferring 15 uL compound into 30 μL DMSO using Apricot. 200 nL diluted compound from compound source plate were transferred into the 96-intermediate plate as designated by using Echo550, followed with 100 ul culture medium to make the 2× compound solution. Cell plate were changed with 80 ul of fresh culture medium and 80 ul of 2× compound solution was added into the well to achieve the final designed concentration. Cell plate was then shaken at 720 rpm for 5 min and incubated for 24 hours in the incubator.
Sample Preperation: Media was aspirated from the cultures and the plate was washed with PBS twice. 60 ul of pre-chilled PIPA lysis buffer (Boston BioProducts BP-115D) with protease inhibitor were directly added into the well to lyze the cells for 20 minutes at 4° C. Cell lysates were collected.
MSD Procedure: The MSD plate was coated with 40 ul cell lysate and incubated at 4° C. overnight. The next day, the MSD coated bare plate was washed 3 times with 150 ul 1×TBST per well, blocked with 150 ul of blocking buffer per well, and shaken for 1 hour at RT, 600 rpm. Blocking buffer was 3% Blocker A in TBST. MSD plate was then washed 3 times with 150 ul 1× TBST per well and Primary Detection antibody (Rabbit anti-SMARCA2/BRM antibody, 100 μg/ml, ab223735) was added to a final [conc.]: 0.3 ug/ml, 25 ul/well and shaken for 1 hour at RT, 600 rpm. Antibody was prepared in Antibody Detection buffer (1% Blocker A in 1×TBST). The MSD plate was then washed 3 times with 150 ul 1×TBST per well. Secondary Detection antibody (SULFO-TAG anti-species antibody) was then added to a final [conc.]: 1 ug/ml, 25 ul/well, and shaken for 1 hour at RT, 600 rpm. Antibodies were prepared in Antibody Detection buffer (1% Blocker A in 1×TBST). MSD plate was washed 3 times with 150 ul 1×TBST per well and 2× MSD reading buffer was added, 150 ul per well, and diluted from 4× with water. MSD instrument was then read.
Data Analysis: The percentage of relative level of SMARCA2 level was calculated following equation below.
LC: A2780, SMARCA2 negative cells. HC: NCI-H1299 cells treated with DMSO.

SMARCA2 [2] = target: T2, SMARCA2; assay: MSD SMARCA2 degradation in A549 cell line; parameters: endogenous in cells; host or cells: A549; details: A549 cells, 24 hours
Experimental: Example 9. MSD SMARCA2 Degradation in A549 Cell Line
Cells were seeded into 96-well plates (A549 cells: 2×10^4 cells/well/100 ul media) abd incubated overnight. The next day, 200 nl compound were added into the intermediate plate with Echo (Labcyte 550) from source plate containing a 3-fold serial dilution from top concentration of 1 mM. The culture medium was changed with 80 ul of fresh medium and 80 ul of 2× compound solution was added into the well to make a final concentration of 1000 nM, 333.3 nM, 111.1 nM, 37.04 nM, 12.35 nM, 4.115 nM, 1.372 nM, 0.457 nM, 0.152 nM and 0 nM (DMSO). The wells were mixed and then incubated for 24 hours. The media was aspirated from the cultures and 60 ul pre-chilled PIPA lysis buffer (Boston BioProducts BP-115D) with protease/phosphatase inhibitor (Roche 05892791001/Roche 04906837001) was added into the well to lyze the cells for 20 minutes at 4° C. The MSD plate (L15XA) was coated with 40 ul cell lysate and incubated at 4° C. overnight. The next day, the plate was washed three times with TBST (CST #9997S), 150 ul/well. The MSD plates was blocked with 150 ul blocking buffer per well and shaked for 1 hr at RT, 600 rpm. The blocking buffer was 3% Blocker A (MSD, R93BA-4) in TBST. The MSD plate was washed three times with 150 ul/well of TBST and 25 ul/well of detection antibody (Rabbit anti-SMARCA2/BRM antibody, 100 μg/ml, ab223735) was added at final concentration of 1 ug/ml diluted in 1% Blocking buffer and shaken for 1 hour at RT, 600 rpm. The MSD plate was washed three times with 150 ul/well of TBST and 25 ul/well of SULFO-TAG anti-rabbit antibody (MSD, R32AB-1) was added at final concentration of 1 ug/ml diluted in 1% Blocking buffer and shaken for 1 hour at RT, 600 rpm. The MSD plate was washed three times with 150 ul/well of TBST and 150 ul/well of 2×MSD reading buffer diluted from 4× (MSD, R92TC-2) with water was added. Lastly, the MSD instrument was read.

SMARCA2 [3] = target: T2, SMARCA2; assay: SMARCA2 Western blot MV4-11 degradation; parameters: endogenous in cells; details: MV4-11 cells, 24 hours
Experimental: as §1
as §2, with “The membrane was blocked with LICOR blocking buffer (LI-COR, 927-50000) for 1 hour. The membrane was washed three times with TBST (CST #9997S), 5 minutes each. Incubation was performed with primary antibody prepared in blocking buffer with 0.1% Tween-20 (Solarbio, P8220) at 4° C. overnight (Anti-SMARCA2/BRM antibody (ab15597) 1:500; Anti-BRG1 antibody [EPR3912] (ab108318) 1:1000; Rabbit anti-Baf180 antibody [EPR15860] (Abcam,ab196022) 1:1000; mouse anti-beta-Actin (8H10D10) (CST #3700) 1:10000). The membrane was washed three times with TBST, 5 minutes each. Incubation with secondary antibody was performed for 1 hour at RT (anti-rabbit IgG (Licor, 926-32211) 1:5000; anti-mouse IgG (LI-COR, 926-68070) 1:5000).” left out

For `Cn1c(=O)n(C2CCC(=O)NC2=O)c2cccc(CCCOCCCN3CCC(c4c[nH]c5nnc(-c6ccccc6O)cc45)CC3)c21` (centres unmarked) [I-6], which Dmax (SMARCA4) is on record?
Its Dmax is < 50%.

What about the DC50 (SMARCA4) of the same molecule?
The DC50 was 0.1 to 0.5 µM.

And the Dmax (SMARCA2 [1])?
The Dmax was < 50%.

Which Dmax (SMARCA4) does the source give for `Cn1c(=O)n(C2CCC(=O)NC2=O)c2ccc(CCCCCCCCCN3CCC(c4c[nH]c5nnc(-c6ccccc6O)cc45)CC3)cc21` (centres unmarked) [I-7] here?
Its Dmax is < 50%.

And the DC50 (SMARCA4)?
Its DC50 is < 0.1 µM.

What about the Dmax (SMARCA2 [1]) of the same molecule?
The Dmax was < 50%.

With `Cc1ncsc1-c1ccc(CNC(=O)[C@@H]2C[C@@H](O)CN2C(=O)[C@@H](NC(=O)CCCCCCCCCN2CCC(c3c[nH]c4nnc(-c5ccccc5O)cc34)CC2)C(C)(C)C)cc1` [I-8] as the molecule, how does the Dmax (SMARCA2 [1]) read?
The Dmax was 50 to 70%.

With `Cc1ncsc1-c1ccc(CNC(=O)[C@@H]2C[C@@H](O)CN2C(=O)[C@@H](NC(=O)CCCCCN2CCC(c3c[nH]c4nnc(-c5ccccc5O)cc34)CC2)C(C)(C)C)cc1` [I-9] as the molecule, how does the Dmax (SMARCA2 [1]) read?
The Dmax was < 50%.

What does the source list for `Cn1c(=O)n(C2CCC(=O)NC2=O)c2cccc(CCCCCN3CCC(c4c[nH]c5nnc(-c6ccccc6O)cc45)CC3)c21` (centres unmarked) [I-10]?
Dmax (SMARCA4): < 50%; DC50 (SMARCA4): < 0.1 µM; Dmax (SMARCA2 [1]): < 50%

Which Dmax (SMARCA4) does the source give for `Cn1c(=O)n(C2CCC(=O)NC2=O)c2cccc(CCCN3CCC(c4c[nH]c5nnc(-c6ccccc6O)cc45)CC3)c21` (centres unmarked) [I-11, 3-(4-(3-(4-(3-(2-hydroxyphenyl)-7H-pyrrolo[2,3-c]pyridazin-5-yl)piperidin-1-yl)propyl)-3-methyl-2-oxo-2,3-dihydro-1H-benzo[d]imidazol-1-yl)piperidine-2,6-dione] here?
Its Dmax is < 50%.

What about the Dmax (SMARCA2 [1]) of the same molecule?
Its Dmax is < 50%.

For `Cc1ncsc1-c1ccc(CNC(=O)[C@@H]2C[C@@H](O)CN2C(=O)[C@@H](NC(=O)CCCCCCCN2CCC(c3c[nH]c4nnc(-c5ccccc5O)cc34)CC2)C(C)(C)C)cc1` [I-12], which Dmax (SMARCA2 [1]) is on record?
Its Dmax is < 50%.

`Cn1c(=O)n(C2CCC(=O)NC2=O)c2cccc(CN3CCC(c4c[nH]c5nnc(-c6ccccc6O)cc45)CC3)c21` (centres unmarked) [I-13] was tested. Which Dmax (SMARCA4) did it give?
The Dmax was < 50%.

What about the DC50 (SMARCA4) of the same molecule?
The DC50 was < 0.1 µM.

And the Dmax (SMARCA2 [1])?
Its Dmax is < 50%.

For `Cc1ncsc1-c1ccc(CNC(=O)[C@@H]2C[C@@H](O)CN2C(=O)[C@@H](NC(=O)[C@H]2CC[C@H](c3cnc(N4CCC(c5c[nH]c6nnc(-c7ccccc7O)cc56)CC4)nc3)CC2)C(C)(C)C)cc1` [I-46, (2S,4R)-4-hydroxy-1-((S)-2-((1r,4S)-4-(2-(4-(3-(2-hydroxyphenyl)-7H-pyrrolo[2,3-c]pyridazin-5-yl)piperidin-1-yl)pyrimidin-5-yl)cyclohexanecarboxamido)-3,3-dimethylbutanoyl)-N-(4-(4-methylthiazol-5-yl)benzyl)pyrrolidine-2-carboxamide], which Dmax (SMARCA2 [2]) is on record?
Its Dmax is > 90%.

And the DC50 (SMARCA2 [2]; read-out: SMARCA2 MSD A549 degradation 24h: Average external-Abs DC50)?
The DC50 was < 0.1 µM.

And the Dmax (SMARCA2 [3]; read-out: SMARCA2 WB MV411 degradation 24h: Average Dmax %)?
The Dmax was > 90%.

What about the DC50 (SMARCA2 [3]; read-out: SMARCA2 WB MV411 degradation 24h: Average external-Abs DC50) of the same molecule?
Its DC50 is < 0.1 µM.

And the Dmax (SMARCA4)?
The Dmax was 50 to 70%.

And the DC50 (SMARCA4)?
The DC50 was > 1 µM.
